Source: patent publication US20210032139A1, “REGULATING A MICROENVIRONMENT OF ANAEROBIC GRANULAR SLUDGE TO PROMOTE ANAEROBIC DIGESTION AND DELAY CALCIFICATION” (GuangXi University, priority 2019, published 2021)

Tests used:
[1] = system: anaerobic granular sludge; experiment: Laboratory anaerobic serum bottle reactor treating papermaking wastewater with daily C8-HSL addition; details: after three months; for Methanobactium, Methanosaeta and Methanosarcina in the microbial community: sequencing analysis
Protocol: First, 50 mL of anaerobic granular sludge and 200 mL of papermaking wastewater collected from a paper mill were placed in a 250 mL anaerobic serum bottle. The bioreactor used in this example involves a 24-hour operation cycle, which has a reaction stage (23.5 h) and a sludge settling stage (0.5 h).
Next, 50 mL of supernatant is removed from the top of the anaerobic serum bottle, and the same volume of fresh papermaking wastewater with N-octyl […] (C8-HSL) is injected into the bottle through a long syringe at the end of the cycle. The injected wastewater is then domesticated for about a week.
2 μg C8-HSL standards are added to the reactor every day after domestication.
The reactor is treated in a constant temperature magnetic stirring water bath at 38° C.
Water samples are collected at the beginning and end of each cycle from the reactor, and sludge samples are also collected at the end of each cycle from the reactor. After a total of three months of operation, sludge biomass is collected by centrifugation at 5000×g for 10 minutes and then frozen for further sequencing analysis. […]

[2] = system: anaerobic granular sludge; experiment: Paper mill anaerobic reactor (1500 m^3) with C8-HSL added to papermaking wastewater at the regulating tank outlet
Protocol: In an anaerobic reactor of a paper mill, the reactor is 8 m high and its working volume is 1500 m^3. The papermaking wastewater with high calcium content enters into a regulating tank. The regulating tank has a volume of 1000 m^3. When it is detected that the proportion of microorganism content in the anaerobic granular sludge in the anaerobic reactor is less than 0.6, C8-HSL standard of AHLs type signal molecule is added to the paper-making wastewater at the outlet of the regulating tank end, the quantity of C8-HSL standard is 50 mg per cubic meter of papermaking wastewater. The time interval of signal molecule input is controlled by time controller. The regulating pool is equipped with liquid level transmitter to detect the liquid level to prevent the reactor feed pump from idling. The wastewater that is modulated in the regulating tank is injected into the anaerobic reactor through the wastewater feed pump and treated according to the conventional anaerobic way. In the treatment process, water samples are collected once a month, and sludge samples are collected once half a year. Sludge biomass is collected by centrifugation at 5000×g for 10 minutes, and then frozen for further sequencing analysis.

[3] = 2 μg C8-HSL added every day, 38° C.
[4] = 20 μg C8-HSL added every day, 38° C.
[5] = 30 μg C8-HSL added every day (150 mg/m^3)
[6] = 30 μg C8-HSL added every day (150 mg/m^3), 38° C.
[7] = 50 mg C8-HSL per cubic meter of papermaking wastewater, paper mill, after five years

## CCCCCCCC(=O)N[C@H]1CCOC1=O [C8-HSL, N-octyl hypererine lactone]
[1]; 2 μg C8-HSL added every day
  increase of activity of coenzyme F420 compared with the reactor without exogenous signal molecules: 33.5%
  increase of removal rate of COD compared with the reactor without exogenous signal molecules: 10.8%
  increase of specific methanogenic activity (SMA) compared with the reactor without exogenous signal molecules: 32.4%
  Methanobactium, Methanosaeta and Methanosarcina in the microbial community: enhanced
[1]; [3]
  chemical oxygen demand (COD) removal rate: 75%
  content of coenzyme F420: 0.18 μmol/gVSS
  specific methanogenic activity (SMA): 25 mL/(gVSS·h)
[1]; 20 μg C8-HSL added every day
  increase of activity of coenzyme F420 compared with the reactor without exogenous signal molecules: 48.1%
  increase of removal rate of COD compared with the reactor without exogenous signal molecules: 18.2%
  increase of specific methanogenic activity (SMA) compared with the reactor without exogenous signal molecules: 43%
  Methanobactium, Methanosaeta and Methanosarcina in the microbial community: enhanced
[1]; [4]
  COD removal rate: 80%
  content of coenzyme F420: 0.20 μmol/gVSS
  specific methanogenic activity (SMA): 27 mL/(gVSS·h)
[1]; [5]
  increase of activity of coenzyme F420 compared with the reactor of adding 100 mg signal molecule per cubic meter of papermaking wastewater: 1.5%
  increase of activity of coenzyme F420 compared with the reactor without exogenous signal molecules: 50.38%
  increase of removal rate of COD compared with the reactor of adding 100 mg signal molecule per cubic meter of papermaking wastewater: 0.375%
  increase of removal rate of COD compared with the reactor without exogenous signal molecules: 18.63%
  increase of specific methanogenic activity (SMA) compared with the reactor of adding 100 mg signal molecule per cubic meter of papermaking wastewater: 1.85%
  increase of specific methanogenic activity (SMA) compared with the reactor without exogenous signal molecules: 45.66%
  Methanobactium, Methanosaeta and Methanosarcina in the microbial community: enhanced
[1]; [6]
  COD removal rate: 80.3%
  content of coenzyme F420: 0.203 μmol/gVSS
  specific methanogenic activity (SMA): 27.5 mL/(gVSS·h)
[2]; [7]
  COD removal rate: 75%
  content of coenzyme F420: 0.19 μmol/gVSS
  specific methanogenic activity (SMA): 24 mL/(gVSS·h)
[2]; 50 mg C8-HSL per cubic meter of papermaking wastewater, paper mill, after five years, without C8-HSL obvious calcification for up to two years
  calcification of the sludge: has not been calcified
[2]; 50 mg C8-HSL per cubic meter of papermaking wastewater, paper mill, sequencing analysis
  Methanobactium, Methanosaeta and Methanosarcina in the microbial community: enhanced
[2]; paper mill reactor, compared with before signal molecule addition
  effect on delaying calcification: obvious
